≈ marks a conversion by molar mass, not a printed value. Like-named read-outs stand apart in the source and are kept apart here.
What was measured:
MRSA ATCC 700699 [1] = test: MIC, broth microdilution, MRSA ATCC 700699; type: cell-based, Staphylococcus aureus; conditions: Mueller Hinton broth, 37 °C, 24 h, peptides in DMSO with 0.002% polysorbate 80, 128-0.25 µg/mL two-fold dilutions, lowest concentration with no visible growth, runs in triplicate
Method: (§1) For minimum inhibitory concentration (MIC) assays, all peptides were dissolved in DMSO containing 0.002% polysorbate 80. Bacteria was grown in Mueller Hinton broth (Oxoid) in triplicate. All incubations were at 37 °C. Dilutions were carried out in triplicate, and 100 µL of autoclaved Mueller Hinton broth was added to wells 2–11 in a 96-well plate. 200 µL of the peptide was added to well one at a concentration of 128 µg/mL. 100 µL of peptide in well one was taken up and pipetted into well two. The mixture was then mixed via pipetting before 100 µL was taken up and pipetted into well three. This process was repeated up to well 10. Once the peptide was added to well 10, 100 µL was taken up and then discarded, ensuring that well 11 had no peptide present. Thus, the concentrations (in µg/mL) were: 128, 64, 32, 16, 8, 4, 2, 1, 0.5, 0.25, and 0 (no peptide present). Each well was then inoculated with 100 µL of bacteria that had been diluted to an OD 600 nm of 0.1. This was repeated three times. The 96-well plates were then incubated at 37 °C for 24 h. […]
(§2) Antibacterial activity of the teixobactin analogues was assessed against Methicillin-resistant Staphylococcus aureus (MRSA ATCC 33591, MRSA ATCC […]) and Methicillin-sensitive Staphylococcus aureus. The minimum inhibitory concentration was measured using the broth microdiluation method (see Experimental Section 2.4). […]

S. aureus ATCC 29213 [2] = test: MIC, broth microdilution, Methicillin-sensitive S. aureus ATCC 29213; type: cell-based, Staphylococcus aureus; conditions: Mueller Hinton broth, 37 °C, 24 h, peptides in DMSO with 0.002% polysorbate 80, 128-0.25 µg/mL two-fold dilutions, no visible growth, runs in triplicate
Method: as §1, §2

MRSA = conditions: introduction, strain not named; cited from earlier work
Text: Brimble et al. have also reported on the synthesis and antibacterial activity of teixobactin analogues by replacing L-allo-enduracididine with isosteres. Furthermore, teixobactin analogues with lipid tails were reported by Jamieson et al ...

MRSA ATCC 33591 = conditions: reference peptides marked with superscript 12 in Table 1; cited from earlier work
Text: MIC: Minimum Inhibitory Concentration in µg/mL; all the MIC runs in triplicate. (-) = Not evaluated. | column: MRSA ATCC 33591

MRSA ATCC 700699 [3] = conditions: reference peptide marked with superscript 12 in Table 1; cited from earlier work
Text: MIC: Minimum Inhibitory Concentration in µg/mL; all the MIC runs in triplicate. (-) = Not evaluated. | column: MRSA ATCC 700699

S. aureus ATCC 29213 [4] = conditions: reference peptide marked with superscript 12 in Table 1; cited from earlier work
Text: MIC: Minimum Inhibitory Concentration in µg/mL; all the MIC runs in triplicate. (-) = Not evaluated. | column: S. aureus ATCC 29213

| Compound | activity against MRSA compared with teixobactin (in words) (MRSA) | MIC: Minimum Inhibitory Concentration, MRSA ATCC 33591 (MRSA ATCC 33591) [µg/mL] | further results |
| --- | --- | --- | --- |
| CN[C@H](CC(C)C)C(=O)N[C@H]1C(=O)N[C@@H](CC(N)=O)C(=O)N[C@H]2C(=O)N[C@H]3C(=O)N[C@H](C(=O)N[C@H](C(=O)O)c4cc(O)cc(O)c4-c4cc3ccc4O)[C@H](O)c3ccc(c(Cl)c3)Oc3cc2cc(c3O[C@@H]2O[C@H](CO)[C@@H](O)[C@H](O)[C@H]2O[C@H]2C[C@](C)(N)[C@H](O)[C@H](C)O2)Oc2ccc(cc2Cl)[C@H]1O [Vancomycin] | – | – | MIC: Minimum Inhibitory Concentration, MRSA ATCC 700699 (MRSA ATCC 700699 [1]): 2 µg/mL (≈ 1.38 µM); MIC: Minimum Inhibitory Concentration, S. aureus ATCC 29213 (S. aureus ATCC 29213 [2]): 4 µg/mL (≈ 2.76 µM) |
| Ile10-teixobactin | to the same extent as teixobactin | – | – |
| Leu10-teixobactin | to the same extent as teixobactin | 0.25 | MIC: Minimum Inhibitory Concentration, MRSA ATCC 700699 (MRSA ATCC 700699 [3]): 0.25 µg/mL; MIC: Minimum Inhibitory Concentration, S. aureus ATCC 29213 (S. aureus ATCC 29213 [4]): 0.062 µg/mL |
| Teixobactin | – | 0.25 | – |
